From US20080255107A1, “Fungicidal Mixtures Comprising N-[2-(Haloalk(Enyl)Oxy)Phenyl]Carboxamides” (BASF SE, priority 2005, published 2008)

Columns and labels:
Assay type in all cases: in vivo
Botrytis cinerea = experiment: Activity against gray mold on bell pepper leaves caused by Botrytis cinerea, 1 day protective application; settings: single active compound, assessed after 5 days
Protocol: The active compounds, separately or jointly, were prepared as a stock solution comprising 25 mg of active compound which was made up to 10 ml using a mixture of acetone and/or dimethyl sulfoxide and the emulsifier Uniperol® EL (wetting agent having an emulsifying and dispersing action based on ethoxylated alkylphenols) in a ratio by volume of solvent/emulsifier of 99:1. The mixture was then made up to 100 ml with water. This stock solution was diluted with the solvent/emulsifier/water mixture described to give the concentration of active compound stated below. Alternatively, the active compounds triticonazole and pyraclostrobin were used as a commercial finished formulation and diluted with water to the stated active compound concentrations. The visually determined percentages of infected leaf areas were converted into efficacies in % of the untreated control: The efficacy (E) is calculated as follows using Abbot's formula: E=(1−α/β)·100 α corresponds to the fungicidal infection of the treated plants in % and β corresponds to the fungicidal infection of the untreated (control) plants in % An efficacy of 0 means that the infection level of the treated plants corresponds to that of the untreated control plants; an efficacy of 100 means that the treated plants were not infected. The expected efficacies of active compound combinations were determined using Colby's formula (Colby, S. R. “Calculating synergistic and antagonistic responses of herbicide combinations”, Weeds, 15, pp. 20-22, 1967) and compared with the observed efficacies. E=x+y−x·y/100 Colby's formula • E expected efficacy, expressed in % of the untreated control, when using the mixture of the active compounds A and B at the concentrations a and b; • x efficacy, expressed in % of the untreated control, when using the active compound A at the concentration a; • y efficacy, expressed in % of the untreated control, when using the active compound B at the concentration b. […] After 5 days, the extent of the fungal infection on the leaves could be determined visually in %.

Puccinia recondita = experiment: Curative activity against brown rust of wheat caused by Puccinia recondita; settings: single active compound, wheat seedlings, sprayed 1 day after inoculation, read after 7 days, efficacy in % of untreated control (Abbot)
Protocol: The active compounds, separately or jointly, were prepared as a stock solution comprising 25 mg of active compound which was made up to 10 ml using a mixture of acetone and/or dimethyl sulfoxide and the emulsifier Uniperol® EL (wetting agent having an emulsifying and dispersing action based on ethoxylated alkylphenols) in a ratio by volume of solvent/emulsifier of 99:1. The mixture was then made up to 100 ml with water. This stock solution was diluted with the solvent/emulsifier/water mixture described to give the concentration of active compound stated below. Alternatively, the active compounds triticonazole and pyraclostrobin were used as a commercial finished formulation and diluted with water to the stated active compound concentrations. The visually determined percentages of infected leaf areas were converted into efficacies in % of the untreated control: The efficacy (E) is calculated as follows using Abbot's formula: E=(1−α/β)·100 α corresponds to the fungicidal infection of the treated plants in % and β corresponds to the fungicidal infection of the untreated (control) plants in % An efficacy of 0 means that the infection level of the treated plants corresponds to that of the untreated control plants; an efficacy of 100 means that the treated plants were not infected. The expected efficacies of active compound combinations were determined using Colby's formula (Colby, S. R. “Calculating synergistic and antagonistic responses of herbicide combinations”, Weeds, 15, pp. 20-22, 1967) and compared with the observed efficacies. E=x+y−x·y/100 Colby's formula • E expected efficacy, expressed in % of the untreated control, when using the mixture of the active compounds A and B at the concentrations a and b; • x efficacy, expressed in % of the untreated control, when using the active compound A at the concentration a; • y efficacy, expressed in % of the untreated control, when using the active compound B at the concentration b. […] The extent of the rust fungus development on the leaves was then determined.

Alternaria solani = experiment: Activity against early blight of tomato caused by Alternaria solani (protective spray, potted tomato plants); settings: single active compound, 16 mg/l; tomato leaves, sprayed 1 day before infection, read after 5 days; efficacy in % of untreated control (Abbot)
Protocol: The active compounds, separately or jointly, were prepared as a stock solution comprising 25 mg of active compound which was made up to 10 ml using a mixture of acetone and/or dimethyl sulfoxide and the emulsifier Uniperol® EL (wetting agent having an emulsifying and dispersing action based on ethoxylated alkylphenols) in a ratio by volume of solvent/emulsifier of 99:1. The mixture was then made up to 100 ml with water. This stock solution was diluted with the solvent/emulsifier/water mixture described to give the concentration of active compound stated below. […] The visually determined percentages of infected leaf areas were converted into efficacies in % of the untreated control: The efficacy (E) is calculated as follows using Abbot's formula: E=(1−α/β)·100 α corresponds to the fungicidal infection of the treated plants in % and β corresponds to the fungicidal infection of the untreated (control) plants in % An efficacy of 0 means that the infection level of the treated plants corresponds to that of the untreated control plants; an efficacy of 100 means that the treated plants were not infected. The expected efficacies of active compound combinations were determined using Colby's formula (Colby, S. R. “Calculating synergistic and antagonistic responses of herbicide combinations”, Weeds, 15, pp. 20-22, 1967) and compared with the observed efficacies. […]

Compound | Observed activity (% infection) (Botrytis cinerea; 63 mg/l) [%] | Observed activity (% infection) (Puccinia recondita; 63 mg/l) [%] | Observed efficacy (% of untreated control, Abbott) (Alternaria solani) [%] | Observed activity (% infection) (Puccinia recondita; 0.25 mg/l) [%] | Observed activity (% infection) (Botrytis cinerea; 16 mg/l) [%]
COc1ccc(C(=CC(=O)N2CCOCC2)c2ccc(Cl)cc2)cc1OC [Dimethomorph, 3-(4-chlorophenyl)-3-(3,4-dimethoxyphenyl)-1-morpholin-4-yl-propenone] | 0 | 0 |  |  | 
COc1cc(C)c(C(=O)c2c(OC)ccc(Br)c2C)c(OC)c1OC [Metrafenone, 3′-bromo-2,3,4,6′-tetramethoxy-2′,6-dimethylbenzophenone] | 0 | 0 |  |  | 
CC1(C)CC/C(=C\c2ccc(Cl)cc2)C1(O)Cn1cncn1 (stereo not shown) [Triticonazole, (5E)-5-[(4-chlorophenyl)methylene]-2,2-dimethyl-1-(1H-1,2,4-triazol-1-ylmethyl)cyclopentanol] |  |  | 20 | 0 | 
COC(=O)N(OC)c1ccccc1COc1ccn(-c2ccc(Cl)cc2)n1 [pyraclostrobin] |  |  |  |  | 11
